Values joined by “and” are separate entries in the source; they are usually repeats but may differ in a detail not shown here. Equal entries are not always repeated. Where two headings read alike, the source gives them in different places.
Tests used:
[1] = Cytotoxicity (CellTiter 96 AQueous); format: cell-based; conditions: human
HIV-1Laï = test: microbe, parasite or virus in culture; format: cell-based; conditions: for EC50: Human immunodeficiency virus 1, MAGI; for SI (CC50/EC50): selectivity index
[2] = molecular target: IN-GCN2 interaction (6xHis-IN / GST-GCN2) (UniProt P04585+Q9P2K8); test: biochemical; format: binding, HIV-1 IN; human GCN2; conditions: for IC50: SAR study, fresh dilutions from powder, at least three independent experiments; for IN-GCN2 interaction (%): screen, single dose 100 µM, single replicate, residual AlphaLISA signal normalized to DMSO control
IN-GCN2 interaction (6xHis-IN / GST-GCN2), sequence (Q9P2K8 192-1024, other chains not shown): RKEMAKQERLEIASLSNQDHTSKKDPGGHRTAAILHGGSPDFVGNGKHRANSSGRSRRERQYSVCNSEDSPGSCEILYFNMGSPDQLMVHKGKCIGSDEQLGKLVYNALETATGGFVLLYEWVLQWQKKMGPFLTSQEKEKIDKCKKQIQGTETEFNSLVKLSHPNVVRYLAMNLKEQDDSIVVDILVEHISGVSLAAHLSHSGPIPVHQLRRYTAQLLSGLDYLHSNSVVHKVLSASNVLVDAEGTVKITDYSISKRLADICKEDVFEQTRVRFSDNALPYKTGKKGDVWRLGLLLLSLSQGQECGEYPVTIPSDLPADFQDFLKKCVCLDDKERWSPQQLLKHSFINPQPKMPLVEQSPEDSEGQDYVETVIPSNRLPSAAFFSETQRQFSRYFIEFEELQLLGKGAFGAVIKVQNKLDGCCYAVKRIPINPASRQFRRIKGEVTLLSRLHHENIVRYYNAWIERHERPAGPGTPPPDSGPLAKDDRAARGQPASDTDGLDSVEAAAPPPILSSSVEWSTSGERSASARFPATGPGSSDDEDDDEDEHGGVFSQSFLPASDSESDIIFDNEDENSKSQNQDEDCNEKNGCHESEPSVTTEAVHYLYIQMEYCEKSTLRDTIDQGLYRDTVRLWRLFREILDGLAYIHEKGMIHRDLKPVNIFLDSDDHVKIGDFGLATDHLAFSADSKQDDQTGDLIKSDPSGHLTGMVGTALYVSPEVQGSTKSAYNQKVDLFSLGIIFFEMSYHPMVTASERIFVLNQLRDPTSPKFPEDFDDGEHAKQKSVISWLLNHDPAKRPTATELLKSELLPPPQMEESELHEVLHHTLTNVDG

[3] = IC50, inhibition of IN-GCN2 interaction
[4] = 24 h, 24 h infection, read-out: EC50
[5] = P4 MAGI CCR5+ cells, 24 h, read-out: CC50

SMILES: CCC1(O)CC(OC2CC(N(C)C)C(OC3CC4OC5CC(=O)C(C)OC5OC4C(C)O3)C(C)O2)c2c(cc3c(c2O)C(=O)c2c(O)ccc(O)c2C3=O)C1C(=O)OC (stereo not drawn) [Compound 1a, cinerubin B]
- CC50 ([1]; 24 h, read-out: CC50): > 5 µM
- EC50 (HIV-1Laï; 24 h infection, read-out: EC50): 0.494 µM

SMILES: CCC1(O)CC(OC2CC(N)C(O)C(C)O2)c2c(O)c3c(c(O)c2C1C(=O)OC)C(=O)c1cccc(O)c1C3=O (stereo not drawn) [Compound 1b]
- IC50 [2, 3]: 0.917 µM
- CC50 ([1]; 24 h, read-out: CC50): > 5 µM

SMILES: CCC1(O)CC(OC2CC(N(C)C)C(O)C(C)O2)c2c(cc3c(c2O)C(=O)c2c(O)ccc(O)c2C3=O)C1C(=O)OC (stereo not drawn) [Compound 1c]
- IC50 [2, 3]: 1.4 µM
- CC50 ([1]; 24 h, read-out: CC50): 0.589 µM

SMILES: CC(=O)[C@]1(O)Cc2c(O)c3c(c(O)c2[C@@H](O[C@H]2C[C@H](N)[C@H](O)[C@H](C)O2)C1)C(=O)c1c(O)cccc1C3=O [Compound 1d]
- CC50 [1]: 0.04 µM

SMILES: CCC1(O)CC(OC2CC(N(C)C)C(O)C(C)O2)c2c(O)c3c(c(O)c2C1OC1CC(N(C)C)C(O)C(C)O1)C(=O)c1cccc(O)c1C3=O (stereo not drawn) [Compound 1e]
- IN-GCN2 interaction (%) [2]: 17.07%
- CC50 ([1]; 24 h, read-out: CC50): 0.724 µM

SMILES: CCC1(O)CC(OC2CC(N(C)C)C(O)C(C)O2)c2c(cc3c(c2O)C(=O)c2c(O)cccc2C3=O)C1C(=O)OC (stereo not drawn) [Compound 1f]
- IC50 [2, 3]: 3.23 µM
- IN-GCN2 interaction (%) [2]: 43.80%
- CC50 ([1]; 24 h, read-out: CC50): 2.35 µM
- EC50 (HIV-1Laï; 24 h infection, read-out: EC50): 1.39 µM

SMILES: CCCCCCCC(=O)OCC(=O)C1(O)Cc2c(O)c3c(c(O)c2C(OC2CC(N)C(O)C(C)O2)C1)C(=O)c1c(OC)cccc1C3=O (stereo not drawn) [Compound 1g, adriamycin octanoate]
- IC50 [2, 3]: 3.95 µM and 4 µM
- CC50 ([1]; 24 h, read-out: CC50): 1.67 µM
- EC50 (HIV-1Laï; [4]): 0.211 µM
- SI (CC50/EC50) (HIV-1Laï): 7.9
- SI (CC50/EC50) (HIV-1Laï; listed as NSC149584): > 10.1

SMILES: COc1cccc2c1C(=O)c1c(O)c3c(c(O)c1C2=O)CC(O)(C(C)=O)CC3OC1CC(N)C(OC2CC(O)C(O)C(C)O2)C(C)O1 (stereo not drawn) [Compound 1h]
- IC50 [2, 3]: 6.5 µM
- CC50 at 24 h [1]: > 5 µM
- EC50 (HIV-1Laï; [4]): 1.66 µM
- SI (CC50/EC50) (HIV-1Laï): >3

SMILES: CCOC(OCC)C(=O)OCC(=O)C1(O)Cc2c(O)c3c(c(O)c2C(OC2CC(N)C(O)C(C)O2)C1)C(=O)c1c(OC)cccc1C3=O (stereo not drawn) [Compound 1i]
- IC50 [2, 3]: 8.05 µM
- CC50 at 24 h [1]: > 5 µM
- EC50 (HIV-1Laï; 24 h): > 5 µM

SMILES: COC(=O)[C@@H]1c2cc3c(c(O)c2[C@@H](O[C@@H]2O[C@@H](C)[C@H](OC)[C@@](C)(OC)[C@H]2OC)C[C@]1(C)O)C(=O)c1c(O)cc2c(c1C3=O)O[C@@H]1O[C@@]2(C)[C@H](O)[C@@H](N(C)C)[C@@H]1O [Compound 1j]
- IC50 [2, 3]: 8.88 µM
- CC50 at 24 h [1]: 0.311 µM

SMILES: CC[C@@]1(O)C[C@H](O[C@H]2C[C@H](N(C)C)[C@H](O[C@H]3C[C@H](O)[C@H](O[C@H]4CCC(=O)[C@H](C)O4)[C@H](C)O3)[C@H](C)O2)c2c(cc3c(c2O)C(=O)c2c(O)cccc2C3=O)[C@H]1C(=O)OC [Compound 1k]
- IN-GCN2 interaction (%) [2]: 28.46%
- CC50 ([1]; 24 h, read-out: CC50): 0.114 µM

SMILES: CCCCCCCCCCCCCCCCCC(=O)OCC(=O)OCC(=O)C1(O)Cc2c(O)c3c(c(O)c2C(OC2CC(N)C(O)C(C)O2)C1)C(=O)c1c(OC)cccc1C3=O (stereo not drawn) [Compound 1m]
- IC50 [2, 3]: 20.6 µM
- CC50 at 24 h [1, 5]: > 5 µM

SMILES: CCN(CC)C1CC(OC2CC(O)(C(=O)CO)Cc3c(O)c4c(c(O)c32)C(=O)c2c(OC)cccc2C4=O)OC(C)C1O (stereo not drawn) [Compound 1n]
- IC50 [2, 3]: 29.4 µM
- CC50 ([1]; 24 h, read-out: CC50): 0.512 µM

SMILES: COc1cccc2c1C(=O)c1c(O)c3c(c(O)c1C2=O)CC(O)(C(C)=O)CC3OC1CC(N(C)C)C(O)C(C)O1 (stereo not drawn) [Compound 1o]
- IC50 [2, 3]: 43.7 µM
- CC50 at 24 h [1]: 0.256 µM

SMILES: COc1cccc2c1C(=O)c1c(O)c3c(c(O)c1C2=O)CC(O)(C(C)=O)CC3OC1CC([N+](C)(C)C)C(O)C(C)O1 (stereo not drawn) [Compound 1q]
- IC50 [2, 3]: 75 µM
- CC50 ([1]; 24 h, read-out: CC50): > 5 µM
- EC50 (HIV-1Laï; [4]): > 5 µM

SMILES: COc1ccc2ccccc2c1/C=C/C(=O)c1ccc(OCc2ccccc2)cc1O [Compound 2a]
- IC50 [2, 3]: 2.6 µM
- CC50 at 24 h [1, 5]: > 5 µM
- effect on HIV replication, in words (HIV-1Laï): pro-viral

SMILES: O=C1CC(c2ccc(O)c(-c3c(O)cc4c(c3O)C(=O)CC(c3ccc(O)cc3)O4)c2)Oc2cc(O)cc(O)c21 (stereo not drawn) [Compound 2c]
- IC50 [2, 3]: > 100 µM
- CC50 at 24 h [1, 5]: > 5 µM

SMILES: O=C1c2c(O)ccc(O)c2C(=O)c2c(NCCO)ccc(NCCO)c21 [Compound 2e]
- IC50 [2, 3]: 4.4 µM
- CC50 at 24 h [1]: > 5 µM
- EC50 (HIV-1Laï; [4]): > 5 µM

SMILES: NC(CS)C(=O)NCCNc1ccc(NCCNC(=O)C(N)CS)c2c1C(=O)c1c(O)ccc(O)c1C2=O (stereo not drawn) [Compound 2f]
- IC50 [2, 3]: 6.4 µM
- CC50 at 24 h [1, 5]: 3.48 µM

SMILES: O=C1c2c(O)ccc(O)c2C(=O)c2c(NCCOCCO)ccc(NCCOCCO)c21 [Compound 2g]
- IC50 [2, 3]: 6.6 µM
- CC50 at 24 h [1]: > 5 µM
- EC50 (HIV-1Laï; [4]): > 5 µM

SMILES: CC(=O)Nc1ccc(Nc2ccc(NCCO)c3c2C(=O)c2c(O)ccc(O)c2C3=O)cc1 [Compound 2h]
- IC50 [2, 3]: 10.6 µM
- CC50 at 24 h [1, 5]: > 5 µM
- EC50 (HIV-1Laï; [4]): > 5 µM

SMILES: O=C1c2c(O)ccc(O)c2C(=O)c2c(NCCCCO)ccc(NCCCCO)c21 [Compound 2i]
- IC50 [2, 3]: 11.2 µM
- CC50 at 24 h [1, 5]: > 5 µM
- EC50 (HIV-1Laï; [4]): > 5 µM

SMILES: CN(C)CCCCNc1ccc(NCCCCN(C)C)c2c1C(=O)c1c(O)ccc(O)c1C2=O [Compound 2j]
- IC50 ([2]; read-out: IC50, inhibition of IN-GCN2 interaction): 11.4 µM
- CC50 at 24 h [1, 5]: > 5 µM

SMILES: O=C1c2c(O)ccc(O)c2C(=O)c2c(NCCCCCO)ccc(NCCCCCO)c21 [Compound 2k]
- IC50 [2, 3]: 12.2 µM
- CC50 at 24 h [1, 5]: > 5 µM
- EC50 (HIV-1Laï; [4]): > 5 µM

SMILES: O=C1c2c(O)ccc(O)c2C(=O)c2c(NCCCO)ccc(NCCCO)c21 [Compound 2l]
- IC50 [2, 3]: 13 µM
- CC50 at 24 h [1, 5]: > 5 µM
- EC50 (HIV-1Laï; [4]): > 5 µM

SMILES: N#CCCNc1ccc(NCCC#N)c2c1C(=O)c1c(O)ccc(O)c1C2=O [Compound 2m]
- IC50 [2, 3]: 16 µM
- CC50 at 24 h [1, 5]: > 5 µM
- EC50 (HIV-1Laï; [4]): > 5 µM

SMILES: Clc1ccc2nc3ccccc3cc2c1 [Compound 2n]
- IC50 [2, 3]: > 100 µM
- CC50 at 24 h [1, 5]: > 5 µM

SMILES: COc1cc2c(cc1OC)c1c(OC)c(OC)cc3c1c1c2sc(=S)n1CC3 [Compound 3a]
- IC50 [2, 3]: 24 µM
- CC50 at 24 h [1, 5]: > 5 µM

SMILES: COc1cc2c(c(OC)c1OC)CC1c3c(cc4c(c3-2)OCO4)CCN1C (stereo not drawn) [Compound 3c]
- IC50 [2, 3]: 54 µM
- fold decrease in activity compared to NSC785155 ([2]; IC50 ratio): 10 fold
- CC50 at 24 h [1]: > 5 µM

SMILES: COc1cc2c(cc1OC)-c1c3c(cc4c1C(C2)N(C)CC4)OCO3 (stereo not drawn) [Compound 3g]
- IC50 [2, 3]: 92 µM
- viral replication, maximum, relative to DMSO control (HIV-1Laï; dose-dependent increase (pro-viral effect)): up to 150%

SMILES: COc1ccc2c(c1)CC1c3c(cc4c(c3-2)OCO4)CCN1C (stereo not drawn) [Compound 3h]
- IC50 [2, 3]: > 100 µM
- CC50 ([1]; 24 h, read-out: CC50): > 5 µM

SMILES: COc1ccc2c(c1OC)-c1c3c(cc4c1C(C2)N(C)CC4)OCO3 (stereo not drawn) [Compound 3j]
- IC50 [2, 3]: > 100 µM
- CC50 at 24 h [1]: > 5 µM

SMILES: COc1cc2c(cc1OC)-c1c(OC)c(OC)cc3c1C(C2)N(C)CC3 (stereo not drawn) [Compound 3k]
- IC50 [2, 3]: > 100 µM
- effect on IN-GCN2 interaction in dose-response, in words ([2]; dose-response assessment): inactive
- IN-GCN2 interaction (%) [2]: 124.35%
- CC50 ([1]; 24 h, read-out: CC50): > 5 µM

SMILES: COc1cc2c3c(c1O)C1(C=CC(=O)C=C1)CC3N(C)CC2 (stereo not drawn) [Compound 3l]
- IC50 [2, 3]: > 100 µM
- CC50 at 24 h [1, 5]: > 5 µM

SMILES: COc1cc2ccc3c(c2cc1OC)N(C)C(OC)c1cc2c(cc1-3)OCO2 (stereo not drawn) [Compound 3m]
- IC50 [2, 3]: > 100 µM
- CC50 ([1]; 24 h, read-out: CC50): > 5 µM

SMILES: COc1cc2c3c(c1O)-c1cc(O)ccc1CC3N(C)CC2 (stereo not drawn) [NSC785186]
- IN-GCN2 interaction (%) [2]: 59.88%

SMILES: COc1ccc2c(c1OC)-c1c(OC)c(OC)cc3c1[C@H](C2)NCC3 [NSC785187]
- IN-GCN2 interaction (%) [2]: 70.21%

SMILES: COc1ccc2c(c1O)-c1c3c(cc4c1[C@H](C2)N(C)CC4)OCO3 [NSC785188]
- IN-GCN2 interaction (%) [2]: 77.54%

SMILES: COc1cc2c(cc1O)C[C@H]1c3c(cc(OC)c(OC)c3-2)CCN1C [NSC785189]
- IN-GCN2 interaction (%) [2]: 31.39%
